These results are taken from patent US20220144815A1, “1,3,4-OXADIAZOLES AND THEIR DERIVATIVES AS NEW ANTIFUNGAL AGENTS” (Bayer Aktiengesellschaft, priority 2018, published 2022).

The structures appear in SMILES notation.

The nature of series [1]: Log P by HPLC on reversed phase columns, method [a] (EEC directive 79/831 Annex V.A8). Format: physicochemical. To be noted: reversed phase HPLC column; log P determined according to method [a] (HPLC on reversed phase columns); read-out: logP. An outline of the steps: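 Reversed-phase HPLC with LC-UV detection per EEC directive 79/831 Annex V.A8, acidic eluent of 0.1% formic acid in water and acetonitrile, linear gradient 10% to 95% acetonitrile. Log P derived from retention times, calibrated against straight-chain alkan-2-ones (C3–C16) by linear interpolation.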

Series [2] concerns Colletotrichum lindemuthianum. In words: Example B: in vitro cell test, spore germination and mycelium growth in liquid culture. To be noted: 144 h, 20 ppm of tested compound, 6 days incubation, read-out: efficacy (inhibition of fungal growth). It is filed as cell-based. On the procedure: • Solvent: dimethyl sulfoxide Culture medium: 14.6 g anhydrous D-glucose (VWR), • 7.1 g mycological peptone (Oxoid), • 1.4 g granulated yeast extract (Merck), QSP 1 liter Inoculum: spore suspension The tested compounds were solubilized in dimethyl sulfoxide and the solution used to prepare the required range of concentrations. The final concentration of dimethyl sulfoxide used in the assay was ≤1%. A spore suspension of Colletotrichum lindemuthianum was prepared and diluted to the desired spore density. The compounds were evaluated for their ability to inhibit spore germination and mycelium growth in liquid culture assay. The compounds were added in the desired concentration to the culture medium with spores. After 6 days incubation, fungi-toxicity of compounds was determined by spectrometric measurement of mycelium growth. Inhibition of fungal growth was determined by comparing the absorbance values in wells containing the tested compounds with the absorbance in control wells without tested compounds.

The test system of the next series is Puccinia recondita. Briefly: Example D: in vivo preventive test (brown rust on wheat). To be noted: 264 h, 500 ppm of tested compound, preventive spray, evaluated 11 days after inoculation, read-out: efficacy. On the procedure:
Solvent: 5% by volume of dimethyl sulfoxide • 10% by volume of acetone Emulsifier: 1 μL of Tween® 80 per mg of active ingredient The tested compounds were made soluble and homogenized in a mixture of dimethyl sulfoxide/acetone/Tween® 80 and then diluted in water to the desired concentration. The young plants of wheat were treated by spraying the tested compound prepared as described above. Control plants were treated only with an aqueous solution of acetone/dimethyl sulfoxide/Tween® 80. After 24 hours, the plants were contaminated by spraying the leaves with an aqueous suspension of Puccinia recondita spores. The contaminated wheat plants were incubated for 24 hours at 20° C. and at 100% relative humidity and then for 10 days at 20° C. and at 70-80% relative humidity. The test was evaluated 11 days after the inoculation. 0% means an efficacy which corresponds to that of the control plants while an efficacy of 100% means that no disease was observed.

A further series deals with Phakopsora pachyrhizi. Briefly: Example F: in vivo preventive test (soybeans), DMSO/acetone/Tween 80. To be noted: 288 h, 500 ppm of tested compound, preventive spray, soybean, evaluated 12 days after inoculation, read-out: efficacy. On the procedure:
Solvent: 5% by volume of dimethyl sulfoxide • 10% by volume of acetone
Emulsifier: 1 μL of Tween® 80 per mg of active ingredient
The tested compounds were made soluble and homogenized in a mixture of dimethyl sulfoxide/acetone/Tween® 80 and then diluted in water to the desired concentration.
The young plants of wheat were treated by spraying the tested compound prepared as described above. Control plants were treated only with an aqueous solution of acetone/dimethyl sulfoxide/Tween® 80.
After 24 hours, the plants were contaminated by spraying the leaves with an aqueous suspension of Phakospora pachyrhizi spores. The contaminated soybean plants were incubated for 24 hours at 24° C. and at 100% relative humidity and then for 11 days at 24° C. and at 70-80% relative humidity.
The test was evaluated 12 days after the inoculation. 0% means an efficacy which corresponds to that of the control plants while an efficacy of 100% means that no disease was observed.

For the compound `C#CC(Nc1ncc(-c2nnc(C(F)F)o2)cn1)c1ccccc1` (racemic) [I.118, 5-[5-(difluoromethyl)-1,3,4-oxadiazol-2-yl]-N-[(1RS)-1-phenylprop-2-yn-1-yl]pyrimidin-2-amine], the chromatographic logP in series [1] turned out to be 2.86. Also, the inhibition of growth at 20 µg/mL in series [2] lay in the range of 90 to 100%. Moreover, the pest or weed control at 500 µg/mL lay within 80 to 89% in the series with Puccinia recondita and 90 to 100% in the series with Phakopsora pachyrhizi.

Turning to `CCC(Nc1ncc(-c2nnc(C(F)F)o2)cn1)c1ccccc1` (racemic) [I.122, 5-[5-(difluoromethyl)-1,3,4-oxadiazol-2-yl]-N-[(1RS)-1-phenylpropyl]pyrimidin-2-amine], the chromatographic logP in series [1] was found to be 3.16. For the same compound, the inhibition of growth at 20 µg/mL in series [2] fell in the range of 90 to 100%. In addition, the pest or weed control at 500 µg/mL in the series with Puccinia recondita and in the series with Phakopsora pachyrhizi was 90 to 100% each time.

Turning to `CC(Nc1ncc(-c2nnc(C(F)F)o2)cn1)c1ccc(F)cc1` (racemic) [I.125, 5-[5-(difluoromethyl)-1,3,4-oxadiazol-2-yl]-N-[(1RS)-1-(4-fluorophenyl)ethyl]pyrimidin-2-amine], the chromatographic logP in series [1] amounted to 2.89. Further, the inhibition of growth at 20 µg/mL in series [2] lay in the range of 80 to 89%. Moreover, the pest or weed control at 500 µg/mL with Puccinia recondita and in the series on Phakopsora pachyrhizi was 90 to 100% throughout.

Regarding `FC(F)c1nnc(-c2cnc(NC(c3ccccc3)C3CC3)nc2)o1` (racemic) [I.136, N—[(RS)-cyclopropyl(phenyl)methyl]-5-[5-(difluoromethyl)-1,3,4-oxadiazol-2-yl]pyrimidin-2-amine], the chromatographic logP in series [1] came to 3.14. Further, in series [2], the inhibition of growth at 20 µg/mL was in the range of 80 to 89%. The pest or weed control at 500 µg/mL was in the range of 80 to 89% in the series on Puccinia recondita and 90 to 100% in the series on Phakopsora pachyrhizi.

In the case of `FC(F)c1nnc(-c2cnc(OC3(c4ccccc4)CC3)nc2)o1` [I.120, 5-[5-(difluoromethyl)-1,3,4-oxadiazol-2-yl]-2-[(1-phenylcyclopropyl)oxy]pyrimidine], the chromatographic logP in series [1] is 2.95. Besides, the inhibition of growth at 20 µg/mL in series [2] lay within 70 to 79%. Also, the pest or weed control at 500 µg/mL in the series on Puccinia recondita fell in the range of 70 to 79%; with Phakopsora pachyrhizi, 90 to 100%.

For the compound `Cc1ccccc1C1(Nc2ncc(-c3nnc(C(F)F)o3)cn2)CC1` [I.132, 5-[5-(difluoromethyl)-1,3,4-oxadiazol-2-yl]-N-[1-(2-methylphenyl)cyclopropyl]pyrimidin-2-amine], in series [1], the chromatographic logP was determined as 3.23. In addition, the inhibition of growth at 20 µg/mL in series [2] was in the range of 70 to 79%. Further, the figures for the pest or weed control at 500 µg/mL with Puccinia recondita and with Phakopsora pachyrhizi were 80 to 89% and 90 to 100%, respectively.

As to `Fc1cccc(C2(Nc3ncc(-c4nnc(C(F)F)o4)cn3)CC2)c1` [I.145, 5-[5-(difluoromethyl)-1,3,4-oxadiazol-2-yl]-N-[1-(3-fluorophenyl)cyclopropyl]pyrimidin-2-amine], the chromatographic logP in series [1] was 2.72. Moreover, the inhibition of growth at 20 µg/mL in series [2] was 80 to 89%. Moreover, the pest or weed control at 500 µg/mL with Puccinia recondita and in the series on Phakopsora pachyrhizi was 90 to 100% each time.

In the case of `Fc1ccccc1C1(Nc2ncc(-c3nnc(C(F)(F)F)o3)cn2)CC1` [I.165, N-[1-(2-fluorophenyl)cyclopropyl]-5-[5-(trifluoromethyl)-1,3,4-oxadiazol-2-yl]pyrimidin-2-amine], the chromatographic logP in series [1] stood at 3.47. Also, the inhibition of growth at 20 µg/mL in series [2] fell in the range of 80 to 89%. Moreover, the pest or weed control at 500 µg/mL with Puccinia recondita and with Phakopsora pachyrhizi was 90 to 100% each time.

The term inhibition of growth denotes the share of the control response that was lost under treatment.
